Results: paper PMC6172217, “A handheld platform for target protein detection and quantification using disposable nanopore strips” (Scientific Reports, 2018)

Tested on: 309 bp/bisPNA-affibody
Test: EMSA, TNFα complex formation
Type: binding

Q: With TNFα as the substance, how does the EMSA complex formation (309 bp/PNA-affibody + TNFα, 1 h room temperature, pH 7.4) read?
A: full DNA/PNA-affibody/TNFα complex formation

Q: And the “EMSA saturation, ratio TNFα to scaffold/bisPNA-affibody” value (band intensity appears to saturate)?
A: ≥ 3 X
